compound: N#CC1(c2ccc(NC(=O)c3cccnc3NCc3ccncc3)cc2)CCCC1 [Apatinib] + CS(=O)(=O)N1CCN(Cc2cc3nc(-c4cccc5[nH]ncc45)nc(N4CCOCC4)c3s2)CC1 [Pictilisib] (partner 1 µM); assay: relative viability (nuclei count vs DMSO), 5 days (fraction); higher = more cells survive; conditions: first compound 8 µM
In short: (§1)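 For relative viability, nuclei counts in treated wells were divided by those in vehicle wells. Lung cancer cell lines had been pin-tool dosed in 1536-well plates the day after seeding and cultured for 5 days, then fixed and stained in one step (final 0.05% Triton X-100, 1% formaldehyde, 1 ug/ml Hoechst) and imaged at 4×. Doses were one drug alone or a fixed anchor-drug dose plus five library-drug doses (not always all listed) in √10 steps, and values are duplicate-plate medians.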

Q: Which relative viability does the source give for NCI-H2170 here?
A: Its relative viability is 0.315.

Q: Which relative viability does the source give for NCI-H2347 here?
A: The relative viability was 0.596.

compound: CN(C)C(=N)NC(=N)N [Metformin] + O=C(c1cc(Cc2n[nH]c(=O)c3ccccc23)ccc1F)N1CCN(C(=O)C2CC2)CC1 [Olaparib] (partner 8 µM); assay: as above; conditions: first compound 10 µM
In short: as §1

Q: For LCLC-103H, which relative viability is on record?
A: Its relative viability is 0.727.

Q: LK-2 was tested. Which relative viability did it give?
A: The relative viability was 0.79.

Q: For LOU-NH91, which relative viability is on record?
A: The relative viability was 0.859.

Q: How did the relative viability turn out when LU99A was run?
A: The relative viability was 0.203.

Q: For LXF-289, which relative viability is on record?
A: Its relative viability is 0.929.

Q: With NCI-H23 as the cell line, how does the relative viability read?
A: Its relative viability is 0.252.

Q: NCI-H322M was tested. Which relative viability did it give?
A: The relative viability was 0.686.

Q: Which relative viability does the source give for NCI-H358 here?
A: The relative viability was 0.394.

Q: How did the relative viability turn out when NCI-H596 was run?
A: Its relative viability is 0.817.

Q: Which relative viability does the source give for NCI-H647 here?
A: The relative viability was 0.375.

Q: How did the relative viability turn out when NCI-H650 was run?
A: The relative viability was 0.315.

Q: With NCI-H727 as the cell line, how does the relative viability read?
A: The relative viability was 0.641.

Q: NCI-H838 was tested. Which relative viability did it give?
A: Its relative viability is 0.686.

Q: Which relative viability does the source give for NCI-H1355 here?
A: The relative viability was 0.696.

Q: With NCI-H1395 as the cell line, how does the relative viability read?
A: The relative viability was 0.386.

Q: With NCI-H1437 as the cell line, how does the relative viability read?
A: Its relative viability is 0.579.

Q: NCI-H1651 was tested. Which relative viability did it give?
A: The relative viability was 0.151.

Q: For NCI-H1666, which relative viability is on record?
A: The relative viability was 0.78.

Q: For NCI-H1734, which relative viability is on record?
A: The relative viability was 0.473.

Q: For NCI-H1755, which relative viability is on record?
A: The relative viability was 0.735.

Q: How did the relative viability turn out when NCI-H1792 was run?
A: Its relative viability is 0.463.

Q: With NCI-H1793 as the cell line, how does the relative viability read?
A: Its relative viability is 0.702.

Q: How did the relative viability turn out when NCI-H1944 was run?
A: The relative viability was 0.385.

Q: NCI-H1975 was tested. Which relative viability did it give?
A: Its relative viability is 0.653.

Q: For NCI-H1993, which relative viability is on record?
A: Its relative viability is 1.01.

Q: How did the relative viability turn out when NCI-H2085 was run?
A: Its relative viability is 0.621.

Q: NCI-H2087 was tested. Which relative viability did it give?
A: The relative viability was 0.316.

Q: NCI-H2126 was tested. Which relative viability did it give?
A: Its relative viability is 0.767.

Q: NCI-H2170 was tested. Which relative viability did it give?
A: Its relative viability is 0.45.

Q: Which relative viability does the source give for NCI-H2347 here?
A: The relative viability was 0.585.

same assay, conditions: first compound 31.62 µM

Q: With LCLC-97TM1 as the cell line, how does the relative viability read?
A: Its relative viability is 0.321.

Q: Which relative viability does the source give for LCLC-103H here?
A: The relative viability was 0.713.

Q: For LK-2, which relative viability is on record?
A: Its relative viability is 0.509.

Q: For LOU-NH91, which relative viability is on record?
A: Its relative viability is 0.894.

Q: Which relative viability does the source give for LU99A here?
A: Its relative viability is 0.251.

Q: How did the relative viability turn out when LXF-289 was run?
A: The relative viability was 0.922.

Q: With NCI-H23 as the cell line, how does the relative viability read?
A: The relative viability was 0.299.

Q: NCI-H322M was tested. Which relative viability did it give?
A: The relative viability was 0.695.

Q: How did the relative viability turn out when NCI-H358 was run?
A: The relative viability was 0.537.

Q: With NCI-H441 as the cell line, how does the relative viability read?
A: Its relative viability is 0.575.

Q: Which relative viability does the source give for NCI-H596 here?
A: The relative viability was 0.795.

Q: Which relative viability does the source give for NCI-H647 here?
A: Its relative viability is 0.394.

Q: NCI-H650 was tested. Which relative viability did it give?
A: The relative viability was 0.296.

Q: Which relative viability does the source give for NCI-H727 here?
A: Its relative viability is 0.599.

Q: With NCI-H838 as the cell line, how does the relative viability read?
A: Its relative viability is 0.691.

Q: How did the relative viability turn out when NCI-H1355 was run?
A: Its relative viability is 0.715.

Q: How did the relative viability turn out when NCI-H1395 was run?
A: The relative viability was 0.428.

Q: How did the relative viability turn out when NCI-H1437 was run?
A: The relative viability was 0.59.

Q: NCI-H1651 was tested. Which relative viability did it give?
A: The relative viability was 0.159.

Q: NCI-H1666 was tested. Which relative viability did it give?
A: Its relative viability is 0.76.

Q: How did the relative viability turn out when NCI-H1734 was run?
A: Its relative viability is 0.636.

Q: Which relative viability does the source give for NCI-H1755 here?
A: Its relative viability is 0.774.

Q: How did the relative viability turn out when NCI-H1792 was run?
A: Its relative viability is 0.39.

Q: For NCI-H1793, which relative viability is on record?
A: Its relative viability is 1.1.

Q: Which relative viability does the source give for NCI-H1915 here?
A: Its relative viability is 0.24.

Q: For NCI-H1944, which relative viability is on record?
A: Its relative viability is 0.381.

Q: How did the relative viability turn out when NCI-H1975 was run?
A: Its relative viability is 0.931.

Q: How did the relative viability turn out when NCI-H1993 was run?
A: Its relative viability is 1.02.

Q: For NCI-H2085, which relative viability is on record?
A: Its relative viability is 0.633.

Q: NCI-H2087 was tested. Which relative viability did it give?
A: Its relative viability is 0.453.

Q: How did the relative viability turn out when NCI-H2126 was run?
A: The relative viability was 0.88.

Q: How did the relative viability turn out when NCI-H2170 was run?
A: Its relative viability is 0.468.

Q: With NCI-H2347 as the cell line, how does the relative viability read?
A: Its relative viability is 0.506.

same assay, conditions: first compound 100 µM

Q: With LCLC-97TM1 as the cell line, how does the relative viability read?
A: The relative viability was 0.394.

Q: LCLC-103H was tested. Which relative viability did it give?
A: The relative viability was 0.76.

Q: Which relative viability does the source give for LK-2 here?
A: The relative viability was 0.644.

Q: For LOU-NH91, which relative viability is on record?
A: Its relative viability is 0.865.

Q: For LU99A, which relative viability is on record?
A: The relative viability was 0.202.

Q: LXF-289 was tested. Which relative viability did it give?
A: The relative viability was 0.829.

Q: How did the relative viability turn out when NCI-H23 was run?
A: The relative viability was 0.279.

Q: Which relative viability does the source give for NCI-H322M here?
A: The relative viability was 0.739.

Q: How did the relative viability turn out when NCI-H358 was run?
A: The relative viability was 0.569.

Q: How did the relative viability turn out when NCI-H441 was run?
A: The relative viability was 0.387.

Q: NCI-H596 was tested. Which relative viability did it give?
A: The relative viability was 0.78.

Q: For NCI-H647, which relative viability is on record?
A: The relative viability was 0.415.

Q: NCI-H650 was tested. Which relative viability did it give?
A: The relative viability was 0.396.

Q: How did the relative viability turn out when NCI-H727 was run?
A: Its relative viability is 0.582.

Q: How did the relative viability turn out when NCI-H838 was run?
A: The relative viability was 0.639.

Q: With NCI-H1355 as the cell line, how does the relative viability read?
A: Its relative viability is 0.713.

From the supplement of paper PMC10307832
